Where two headings read alike, the source gives them in different places.
Key:
[1] = system: MDR1 mRNA in A2780/T cells; test: RT-PCR analysis of MDR1 mRNA; assay type: cell-based, human; details: nobiletin at concentrations used in reversal assays, 48 h
Experimental: RT-PCR was performed to evaluate MDR1 mRNA expression. mRNA from cell lysates were purified by binding to poly(dT) magnetic beads (Life technologies) and reverse transcribed by using SuperScript II (Life technologies). Standard quantitative RT-PCR was performed in duplicates at least two to three times by using SYBR Green (Molecular Probes) protocols on the ViiA™ 7 Real-Time PCR System (Life technologies). The primer sequences: 5′-[…]-3′ (SEQ ID NO:1) and 3′-[…]-5′ (SEQ ID NO:2) for MDR1, and 5′-[…]-3′ (SEQ ID NO:3) and 3′-[…]-[…]-5′ (SEQ ID NO:4) for control gene eukaryotic translation initiation factor (TIF). RT-PCR data were normalized by measuring average cycle threshold (Ct) ratios between candidate genes and control gene TIF.

A2780/T cells [2] = test: Intracellular accumulation of doxorubicin and Flutax-2; assay type: cell-based, human; details: 8 h, 4.5 μM nobiletin or 20 μM QND
A2780/T cells [3] = test: Combination index, Chou-Talalay method (CalcuSyn); assay type: cell-based, human
A2780/T cells [4] = test: Cell cycle analysis (PI, flow cytometry); assay type: cell-based, human
Experimental: A2780/T cells were harvested 24 hours, 48 hours, or 72 hours after treatment and washed twice with ice-cold PBS. The cells were fixed and permeabilized with 70% ice-cold ethanol overnight at 4° C. or 2 h at −20° C. After one additional wash in PBS, cells were stained with a staining solution containing propidium iodide (PI) ([…]) and RNase A (250 μg/ml) for 30 min at room temperature. They were then pelleted, washed and suspended in PBS to a final concentration of 1×10^6/ml and analyzed by flow cytometry BD FACS Aria (BD Biosciences, San Jose, Calif.).

[5] = biological target: T1, recombinant human ABCB1 membranes (P-gp ATPase) (Homo sapiens, UniProt P08183); test: ABCB1 ATPase activity assay (PgpGlo); assay type: biochemical
T1 construct: purchased Promega
T1 sequence (P08183 whole entry): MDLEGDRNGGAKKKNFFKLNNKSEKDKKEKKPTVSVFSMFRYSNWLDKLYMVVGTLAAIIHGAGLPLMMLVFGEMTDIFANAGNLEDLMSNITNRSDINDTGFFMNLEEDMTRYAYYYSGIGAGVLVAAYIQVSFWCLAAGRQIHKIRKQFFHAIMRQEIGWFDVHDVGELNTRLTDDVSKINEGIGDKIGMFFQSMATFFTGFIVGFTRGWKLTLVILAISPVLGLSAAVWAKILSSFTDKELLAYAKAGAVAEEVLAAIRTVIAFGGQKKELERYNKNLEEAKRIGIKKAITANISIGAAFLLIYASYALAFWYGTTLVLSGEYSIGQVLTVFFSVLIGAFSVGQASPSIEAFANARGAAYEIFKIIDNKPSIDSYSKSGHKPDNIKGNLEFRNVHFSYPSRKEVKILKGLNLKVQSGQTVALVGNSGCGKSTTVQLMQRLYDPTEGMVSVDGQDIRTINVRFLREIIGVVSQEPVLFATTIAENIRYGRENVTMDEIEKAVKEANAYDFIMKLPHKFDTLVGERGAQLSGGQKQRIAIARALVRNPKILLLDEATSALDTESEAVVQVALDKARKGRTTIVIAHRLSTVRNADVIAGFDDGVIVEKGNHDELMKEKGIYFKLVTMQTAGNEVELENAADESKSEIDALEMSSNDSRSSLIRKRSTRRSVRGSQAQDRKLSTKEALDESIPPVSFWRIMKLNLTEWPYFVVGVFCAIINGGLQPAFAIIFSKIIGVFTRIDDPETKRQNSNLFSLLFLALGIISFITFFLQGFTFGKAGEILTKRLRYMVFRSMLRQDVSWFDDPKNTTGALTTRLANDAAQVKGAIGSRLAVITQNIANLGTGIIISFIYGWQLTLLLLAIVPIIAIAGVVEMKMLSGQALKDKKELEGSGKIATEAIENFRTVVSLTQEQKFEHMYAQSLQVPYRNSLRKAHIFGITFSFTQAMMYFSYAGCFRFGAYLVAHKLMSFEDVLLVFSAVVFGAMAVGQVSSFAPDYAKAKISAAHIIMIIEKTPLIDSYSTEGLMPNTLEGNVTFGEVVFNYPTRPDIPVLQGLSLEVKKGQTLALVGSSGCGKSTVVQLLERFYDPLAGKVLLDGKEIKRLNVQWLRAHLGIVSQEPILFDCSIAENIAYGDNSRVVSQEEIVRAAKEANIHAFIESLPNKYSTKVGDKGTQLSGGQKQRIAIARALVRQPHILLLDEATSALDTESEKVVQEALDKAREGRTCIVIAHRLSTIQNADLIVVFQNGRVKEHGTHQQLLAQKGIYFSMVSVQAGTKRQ
Experimental: Sodium orthovanadate (Na3VO4) was used as an ABCB1 ATPase inhibitor. […] Luminescence was initiated by ATP detection buffer. The plate (white opaque 96-well, corning, USA) was further incubated at room temperature for […] to develop luminescent signal, and was read with luminometer (infinite M200 PRO, TECAN, Switzerland).

[6] = system: prostate cancer cell lines; details: several prostate cancer cell lines; read-out: IC50, growth inhibition; cited from earlier work
[7] = rats, single administration 50 mg/kg by gavage; cited from earlier work
A2780/T cells [8] = test: Apoptosis analysis by Annexin-V/PI double staining; assay type: cell-based, human
Experimental: After treatment, 1×10^6 cells were collected, washed and suspended in 100 μl of binding buffer (10 mM N-2-hydroxyethylpiperazine-N,-2-ethanesulfonic acid/NaOH, 140 mM NaCl, 2.5 mM CaCl2, pH 7.4). Apoptotic cells were identified by double supravital staining with 5 μl recombinant FITC (fluorescein isothiocyanate)-conjugated Annexin-V and 5 μl PI (50 μg/ml). The cells were stained for […] at room temperature in the dark, and analyzed by fluorescence-activated cell sorting cater-plus flow cytometry. Data acquisition and analysis were performed in BD FACS Aria with FlowJo software.

[9] = system: ABCB1 transfected cell line LLC-GA5-COL300; details: nobiletin 20 μM; cited from earlier work
[10] = healthy subjects, single dose of Sytrinol (1053 mg total polymethoxylated flavones); cited from earlier work
[11] = system: P-gp, p53, AKT/ERK, Nrf2 in A2780/T cells; test: Western blot analysis; assay type: cell-based, human
Experimental: The total cellular samples were harvested and rinsed twice with ice-cold PBS buffer. Cell extracts were lysed in RIPA buffer (50 mM Tris (pH 7.4), 150 mM NaCl, 1% Triton X-100, 1% sodium deoxycholate, 0.1% SDS, sodium orthovanadate, sodium fluoride and EDTA) containing protease inhibitor cocktails (Roche Life Science, USA). Protein concentration was determined using the BCA protein assay kit. Equal amounts of cell lysates were resolved by SDS-PAGE and subsequently electrophoretically transferred onto PVDF membranes (Millipore, Darmstadt, Germany). After blocking in tris-buffered saline containing 0.1% of Tween20 (TBST) with 5% (w/v) skim milk (Nestle Carnation, New Zealand) for 2 h at room temperature, the membranes were incubated with primary and secondary antibodies and subsequently visualized with an enhanced chemiluminescence detection kit (Thermo Scientific™ SuperSignal™ West Pico Chemiluminescent Substrate, USA). β-Actin was used as the loading control for the experimental data analysis.

in vitro = assay type: cell-based; details: human
Experimental: Sulphorhodamine B (SRB) assays were used for cell density determination, based on sensitive measure of total cellular protein, which perform similarly compared with other proliferation assays such as MTT assay. Briefly, cells were seeded into flat bottomed 96-well plates at an initial density of 7.5×10^3 per well before treatment. […] After removing the medium, cells were fixed in 10% trichloroacetic acid for 1 h at 4° C. and then washed with water five times. 0.4% SRB dissolved in 1% v/v acetic acid was added and incubated […] for staining. The cells were quickly washed with 1% acetic acid and left to dry overnight. The protein bound SRB was solubilized by adding 200 μl 10 mM Tris buffer per well and was measured at wavelengths 490 nm using a plate reader (Spectra MAX 250; Molecular Devices, Sunnyvale, Calif.). The optical density of SRB in each well is directly proportional to the cell number.

[12] = nobiletin 9 μM in combination with 0.94 μM PTX

COc1ccc(-c2cc(=O)c3c(OC)c(OC)c(OC)c(OC)c3o2)cc1OC [nobiletin]
expression of MDR1 mRNA [1]: did not significantly alter | intracellular accumulation of DOX (A2780/T cells [2]; 5 μM DOX): higher than that in untreated A2780/T | intracellular accumulation of Flutax-2 (A2780/T cells [2]; Flutax-2 1 μM): higher than that in untreated A2780/T | EC50 (A2780/T cells [3]; Homo sapiens, A2780, read-out: Dose N at Fa = 0.5 (ED50), CalcuSyn simulation, A2780/T, nobiletin dose, alone or in the combination): 36 µM | decrease of the ED50 dose of PTX (A2780/T cells [3]; combination with 0.286 μM nobiletin, A2780/T): 200 fold | effect on the cell cycle (A2780/T cells [4]; nobiletin 9 μM alone): no effect | G1 phase cells (A2780/T cells [4]; [12]): 9.6% | G2 phase cells (A2780/T cells [4]; [12]): 75.77% | EC50 [5]: 5.88 µM | IC50 [5]: 7.17 µM | maximal stimulation of ATPase activity relative to basal activity ([5]; human, 40 min): 3 fold | IC50 [6]: ~100 µM | peak plasma level [7]: ~22.5 µM | apoptosis induction, single treatment (A2780/T cells [8]; 9 μM nobiletin alone or 0.94 μM PTX alone): did not show apoptosis induction | apoptosis induced by 0.94 μM PTX (annexin V-FITC positive) (A2780/T cells [8]; 0.5, 1.5, 4.5 and 9 μM nobiletin + 0.94 μM PTX, 48 h): significantly increase apoptosis | increase of uptake of [3H] vinblastine [9]: 1.8 fold | peak plasma level [10]: ~2.5 µM | phosphorylated AKT/ERK level ([11]; 50 μM nobiletin): significant decrease | phosphorylated AKT and ERK ([11]; PTX and nobiletin, 48 h): significant inhibitory effect | p53 level ([11]; PTX in combination with nobiletin): accumulation of p53 | expression of total and phosphorylated AKT and ERK ([11]; nobiletin alone at reversal concentrations): no effect | protein level of ABCB1 ([11]; nobiletin at concentrations used in reversal assays, 48 h): did not significantly alter | protein level of Nrf2 ([11]; nobiletin in combination with 0.94 μM PTX, dose-dependent): reduced | viability at 9 µM (in vitro): > 90%

From patent publication US9808477B2 (Macau University of Science and Technology, priority 2015, dated 2017)
